Measurements published in paper PMC4428793, “MK571 inhibits phase-2 conjugation of flavonols by Caco-2/TC7 cells, but does not specifically inhibit their apical efflux^” (Biochemical Pharmacology, 2015).

What was measured:
[1] = test system: Caco-2/TC7 cells; assay: Flavonol metabolism and transport experiments on Caco-2/TC7 transwell monolayers, effect of MK571; type: cell-based, human; details: apical to basolateral ratio of efflux of the conjugate, 60 min, 12-well transwells
Method: Cells were grown at 37 °C in a humidified incubator with 5% CO2 in Dulbecco Modified Eagle's Medium (DMEM) containing 1% non-essential amino acids, 1% L-glutamine, 100 IU/mL penicillin and 100 μg/mL streptomycin, 1 g/L glucose, and supplemented with 20% (v/v) heat inactivated fetal calf serum. Cells were passaged at 80% confluency, and seeded at 2–4 × 10^4 cells per cm^2 on 10 cm dishes (growing area 75 cm^2) or 12-well transwells (growing area of 1.1 cm^2). […] Toxicity of MK571 on Caco-2/TC7 cell monolayers was determined through comparison of pre- and post-loading TEER values of wells incubated with MK571.
Flavonol stocks (quercetin, kaempferol, galangin; 10 mM) were prepared in dimethylsulfoxide (DMSO) and stored at −20 °C. MK571 was dissolved in dimethyl sulfoxide (10 mM final concentration) and stored at −20 °C. Prior to the metabolism or transport experiments, cells were aspirated of media and washed three times with phosphate buffered saline (PBS). To foetal calf serum and phenol red-free DMEM was added ascorbic acid at a final concentration of 100 μM as well as MK571 at the desired concentration. For metabolism experiments, 10 mL of this media was added to the cells in 10 cm dishes. For transport experiments using transwells, 0.6 mL of this media was added to the apical compartment of the transwell and 1 mL was added to the basolateral compartment. Control wells received an equivalent dose of dimethyl sulfoxide as the treatment wells. Cells were incubated at 37 °C for 30 min, after which flavonols dissolved in dimethyl sulfoxide (kaempferol, galangin or quercetin) were added to the media of treatment wells at a final concentration of 40 or 100 μM, while control wells were treated with the dimethyl sulfoxide vehicle alone. Concentrations of quercetin were increased to 100 μM because instability of quercetin in media necessitated higher initial loading to maintain adequate cellular and media concentrations for uptake and metabolism of the flavonol. Control and treatment cells were incubated at 37 °C for the periods indicated in the results.
Following the required incubation period, media and cell fractions were harvested and analysed to identify and quantify flavonol metabolites using HPLC. Media was removed from the apical (0.5 mL) and basolateral (0.5 mL) compartments of transwells and added to 25 μL trifluoroacetic acid and 25 μL HPLC grade acetonitrile. Media from 10 cm dishes (1 mL) was removed and added to 50 μL trifluoroacetic acid and 25 μL HPLC grade acetonitrile. Cells were washed three times with cold (room temperature) phosphate buffered saline solution and scraped free of the dish surface. For transwells, 100 μL MilliQ water was added to the cells and the resulting cell suspension pipetted into 10 μL trifluoroacetic acid and 10 μL HPLC grade acetonitrile. For 10 cm dishes, the resulting cell suspension was pipetted into 25 μL trifluoroacetic acid and 25 μL HPLC grade acetonitrile. Samples were either analysed immediately or otherwise stored at −20 °C prior to HPLC analysis. Flavonols were stable during frozen storage and thawing (no significant losses up to 26 weeks).
Media samples were thawed where necessary and then mixed using a vortex mixer, centrifuged for 10 min at 14,000 × g using a micro centrifuge, and the supernatant removed and placed in an HPLC vial for analysis. Cell samples were vortex-mixed and then ultra-sonicated (sonic water bath) for 10 min, vortex mixed again and then centrifuged for 10 min at 14,000 × g using a micro-centrifuge, before removal of supernatant for HPLC analysis. Identification and quantification of individual flavonol metabolites was carried out using liquid chromatography–mass spectrometry and nuclear magnetic resonance analyses, as described previously. […]

[2] = test system: Caco-2/TC7 cell lysate; assay: Flavonol conjugate production by Caco-2/TC7 cell free lysate, effect of MK571; type: biochemical, human; details: aglycone 40 μM; for Change in rate (%): MK571 50 μM vs control; for Rate +MK571 (conjugate production): MK571 50 μM; for Rate +MK571 (conjugate production) / Rate control (conjugate production): slope (standard error of the slope); for Rate control (conjugate production): no MK571
Method: Cells were grown until 21 days post confluent and washed and aspirated as described previously. The cells were then scraped into tubes and these tubes kept on ice at all times throughout the preparation procedure. Homogenisation buffer comprised of sodium phosphate buffer (50 mM adjusted to pH 6.5; 20 mL), two mini protease inhibitor cocktail tablets containing EDTA and perfabloc, dithiothreitol (30.8 mg), alamethacin (20 μL of a 22 μg/mL) solution from T. viride; and MgCl2 (3.5 mg). Cell-free homogenates were prepared by mixing cells with homogenisation buffer (50:50, vol/vol) and vortexing with glass beads in an eppendorf tube three times for 1 min over a 10 min period. To 900 μL of cell free lysate was added 10 μL uridine 5′-diphosphoglucuronic acid (4 mM final concentration) with uridine 5′-diphospho-N-acetyl-glucosamine (dissolved in homogenisation buffer, 2 mM final concentration); 10 μL MK571 (50 mmol/L stock diluted 1:9 with homogenisation buffer) or 10 μL dimethyl sulfoxide blank (diluted 1:9 with homogenisation buffer). The tubes were allowed to warm and once they reached 37 °C, the flavonols were added at the relevant concentration (kaempferol, quercetin or galangin; 10 mmol/L stock in dimethyl sulfoxide diluted 1:1 with homogenisation buffer, plus homogenisation buffer added to create a final volume of 1000 μL) and the tube vortexed briefly. The experiment was stopped by addition of a mixture of 50 μL trifluoracetic acid and 50 μL acetonitrile. Samples were then centrifuged for 10 min at 14,000 × g. The supernatant was removed and analysed via HPLC.

Molecule | Ap:Bl ratio (50 μM MK571) [1] | Ap:Bl ratio (No MK571) [1] | Change in rate (%) [2] | Rate +MK571 (conjugate production) [2] | Rate control (conjugate production) [2] | Ap:Bl ratio (100 μM MK571) [1]
O=C(O)[C@H]1O[C@@H](Oc2cc(-c3oc4cc(O)cc(O)c4c(=O)c3O)ccc2O)[C@H](O)[C@@H](O)[C@@H]1O [Q-3′-GlcA] | 100% apical | 100% apical | +25.6% | 2.62 (±0.24) pmol/h | 2.09 (±0.12) pmol/h | –
galangin sulphate [G-S] | 9.10 (±0.783) | 13.6 (±1.440) | – | – | – | –
kaempferol sulphate [K-S] | 3.92 (±0.646) | 3.02 (±0.230) | – | – | – | 0.14 (±0.006)
O=C(O)[C@H]1O[C@@H](Oc2c(-c3ccc(O)c(O)c3)oc3cc(O)cc(O)c3c2=O)[C@H](O)[C@@H](O)[C@@H]1O [Q-3-GlcA] | – | – | −21.8% | 0.83 (±0.14) pmol/h | 1.05 (±0.09) pmol/h | –
O=C(O)[C@H]1O[C@@H](Oc2cc(O)c3c(=O)c(O)c(-c4ccccc4)oc3c2)[C@H](O)[C@@H](O)[C@@H]1O [G-7-GlcA, galangin-7-glucuronide] | 0.51 (±0.036) | 0.54 (±0.058) | −45.7% | 19.8 (±1.63) pmol/h | 36.5 (±1.49) pmol/h | –
O=C(O)[C@H]1O[C@@H](Oc2c(-c3ccccc3)oc3cc(O)cc(O)c3c2=O)[C@H](O)[C@@H](O)[C@@H]1O [G-3-GlcA, galangin-3-glucuronide] | 0.35 (±0.091) | 0.24 (±0.033) | −63.2% | 25.3 (±2.30) pmol/h | 68.8 (±6.12) pmol/h | –
O=C(O)[C@H]1O[C@@H](Oc2cc(O)c3c(=O)c(O)c(-c4ccc(O)c(O)c4)oc3c2)[C@H](O)[C@@H](O)[C@@H]1O [Q-7-GlcA] | – | – | −31.8% | 1.29 (±0.26) pmol/h | 1.89 (±0.16) pmol/h | –
O=C(O)C1OC(Oc2cc(O)cc3oc(-c4ccccc4)c(O)c(=O)c23)C(O)C(O)C1O (centres unmarked) [G-5-GlcA] | 0.30 (±0.024) | 0.19 (±0.020) | – | – | – | –
O=C(O)[C@H]1O[C@@H](Oc2c(-c3ccc(O)cc3)oc3cc(O)cc(O)c3c2=O)[C@H](O)[C@@H](O)[C@@H]1O [K-3-GlcA, kaempferol-3-glucuronide] | – | – | −19.3% | 1.40 (±0.08) pmol/h | 1.73 (±0.16) pmol/h | –
O=C(O)[C@H]1O[C@@H](Oc2cc(O)c3c(=O)c(O)c(-c4ccc(O)cc4)oc3c2)[C@H](O)[C@@H](O)[C@@H]1O [K-7-GlcA, kaempferol-7-glucuronide] | 0.35 (±0.063) | 0.28 (±0.044) | −38.2% | 0.69 (±0.02) pmol/h | 1.12 (±0.09) pmol/h | 0.44 (±0.021)
O=C(O)[C@H]1O[C@@H](Oc2ccc(-c3oc4cc(O)cc(O)c4c(=O)c3O)cc2)[C@H](O)[C@@H](O)[C@@H]1O [K-4′-GlcA, kaempferol-4′-glucuronide] | 0.33 (±0.080) | 0.26 (±0.066) | – | – | – | 0.43 (±0.018)
O=C(O)[C@H]1O[C@@H](Oc2ccc(-c3oc4cc(O)cc(O)c4c(=O)c3O)cc2O)[C@H](O)[C@@H](O)[C@@H]1O [Q-4′-GlcA] | 0.25 (±0.035) | 0.23 (±0.034) | +12.1% | 0.28 (±0.03) pmol/h | 0.25 (±0.01) pmol/h | –
kaempferol-sulfo-glucuronide [K-S-GlcA] | 0.42 (±0.121) | 0.59 (±0.174) | – | 0.34 (±0.02) pmol/h | 0.54 (±0.04) pmol/h | 0.43 (±0.028)
